Data reported in patent US11291719B2, “Methods and compositions for modulating Akt3” (Augusta University Research Institute, Inc., priority 2016, dated 2022).

Test system: nTregs
Assay: Proliferation and viability of activated nTregs
Type: cell-based
Source text: FIGS. 14A-14H is a set of histograms showing proliferation of activated nTregs treated with various concentrations of mJJ64A. FIG. […] is a bar graph showing percent proliferation of nTregs treated with various concentrations of mJJ64A. The X-axis represents treatment and the Y-axis represents percent proliferation. FIG. 13J is a bar graph showing the percent of live cells in nTregs treated with various concentrations of mJJ64A. The X-axis represents treatment and the Y-axis represents percentage of live cells.
FIGS. 16A-16L is a set of histograms showing the suppressive function of untreated and mJJ64A treated nTregs. The ratio of nTreg to Tconv cells is 0:1, 0.5:1, 1:1, 2:1, and 3:1.

## N#Cc1ccc2nccc(Nc3ccc(C(=O)Nc4ccc(Nc5ccncc5)cc4)cc3)c2c1 [Compound 2]
  viability of nTregs: without affecting
Activated nTregs
  proliferation of nTregs: increased
